Data taken from PubChem BioAssay AID179 (DTP/NCI, 2004).
Calls of active or inactive are those of the source.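 How the source made its calls: active means compounds giving half or more protection of infected cells from virus-caused growth loss, again on retest; inactive means the rest.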 Where a SMILES comes first, the peptide text is derived from it. Bridges are numbered along the chain shown (N, C = ends).

System: CEM cells HIV-1 protection, formazan growth assay
Experiment: NCI AIDS Antiviral Assay
Conditions: for IC50: measured here: growth of uninfected CEM cells
Outline: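 Steps: treat uninfected and HIV-1-infected human CEM cells at five drug levels; quantify growth by soluble formazan; retest any compound reaching 50% protection; classify actives from the retest.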

CC(C)(C)c1cc2c(c(C(C)(C)C)c1O)CC(=O)O2
EC50: > 200 µM
IC50: 41.7 µM

Cn1nc(Br)c(=O)n(C(c2ccccc2)c2ccccc2)c1=O
EC50: > 69.2 µM
IC50: 22.9 µM

CC1CCN(C(C)C)P(=S)(Cc2ccccc2)O1 (stereo not given)
EC50: > 200 µM
IC50: 123 µM

CCN(CC)CCOc1ccc(/C(C#N)=C/c2ccc(OCCN3CCCCC3)cc2)cc1
EC50: > 200 µM
IC50: 0.832 µM

Cc1cc(C)c(P2C(=C(O[Si](C(C)C)(C(C)C)C(C)C)C(C)(C)C)C2(c2ccccc2)c2ccccc2)c(C)c1 (stereo not given)
EC50: > 100 µM
IC50: > 100 µM

Cc1nnc2c([N+](=O)[O-])c(N)c(Cl)nn12
EC50: > 200 µM
IC50: 1.29 µM

Cn1c(=O)c(C#N)c2n(c1=S)CCCCCCC2
EC50: > 200 µM
IC50: 112 µM

CCC1CC2CN3CCc4c([nH]c5ccc(OC)cc45)C(C(=O)OC)(C2)C13 (stereo not given)
outcome: inactive

C/C=C/OC1C(C2COC(C)(C)O2)OC2OC(C)(C)OC21 (stereo not given)
EC50: > 200 µM
IC50: > 200 µM

CC(=O)OCCn1c(Cc2ccc(C)cc2)nn(C(C)=O)c1=O
EC50: > 200 µM
IC50: > 200 µM

COc1ccc2c(c1OC)C(=O)C2
EC50: > 200 µM
IC50: > 200 µM

NC(=O)C(=CNC(=S)Nc1cccc(C(F)(F)F)c1)C(N)=O
EC50: > 200 µM
IC50: > 200 µM

CN(C)COC(=S)[S-].CN(C)COC(=S)[S-].CN(C)COC(=S)[S-].[Fe+6]
EC50: > 2 µM
IC50: 0.363 µM

CCOC(OCC)(OCC)C(Br)CC (stereo not given)
EC50: > 933 µM
IC50: > 933 µM

O=c1[nH]nc(Cc2ccccc2)n1CCCl
EC50: > 200 µM
IC50: > 200 µM

N#CC12CC=C(c3ccccc3)N=C1NC(c1ccccc1)=CC2 (stereo not given)
EC50: > 200 µM
IC50: 23.4 µM

CN(C)CCCN1C(=O)N(CCCN(C)C)c2c3cc(O)ccc3nc3c([N+](=O)[O-])ccc1c23
EC50: > 200 µM
IC50: 0.977 µM

COC(=O)/C(=N\NC(=O)c1ccccc1O)C(C#N)c1ccccc1 (stereo not given)
EC50: > 741 µM
IC50: 5.62 µM

O=C(O)c1cc2ccccc2[nH]c1=O
outcome: inactive

O=C1C=CC=C/C1=C1\N=C(c2ccccc2OCC(=O)c2ccccc2)SS1
EC50: > 50.1 µM
IC50: 4.27 µM

CCc1nnc(-c2nsc3ccccc23)s1
EC50: > 145 µM
IC50: 126 µM

CCCCC(/C=N/Nc1ccc([N+](=O)[O-])cn1)CC (stereo not given)
EC50: > 200 µM
IC50: > 200 µM

N#CC(C#N)=Cc1ccc(C#N)cc1
EC50: > 141 µM
IC50: 20.4 µM

O=C1CCCC/C1=C\c1ccc([N+](=O)[O-])cc1
EC50: > 200 µM
IC50: 6.03 µM

Cn1c(=O)[nH]c(=O)c2[nH]c(=O)c(=O)n(C)c21
EC50: > 200 µM
IC50: > 200 µM

CC(=O)c1ccc(NC(=O)/C(CC(=O)/C=C/c2ccccc2)=N/NC(N)=S)cc1
EC50: > 63.1 µM
IC50: > 63.1 µM

CSc1cc(-c2ccccn2)nc(-c2ccccn2)c1
EC50: > 2 µM
IC50: 0.269 µM

CN(C)CCC(O)(c1ccccc1)C(O)(CCN(C)C)c1ccccc1 (stereo not given)
EC50: > 72.4 µM
IC50: > 72.4 µM

CC(=O)C1CCC2[C@@H]3CCC4c5nn(-c6ccccc6)nc5CC[C@]4(C)C3CC[C@]12C (stereo not given in full)
outcome: inactive

Cc1ccc(/C=C/C(=N/NC(=O)N/N=C(/C=C/c2ccc(C)cc2)C(C)(C)CN2CCCCC2)C(C)(C)CN2CCCCC2)cc1
EC50: > 200 µM
IC50: 3.02 µM

O=C(O)CCc1cccc2c1oc1c(CCC(=O)O)cccc12
EC50: > 794 µM
IC50: 191 µM

CC1(Br)C(=O)NC(=O)N(C2C=CC(CO)O2)C1N=[N+]=[N-] (stereo not given)
EC50: 0.724 µM
IC50: 7.24 µM

C=CCNC(=S)N/C=C(/C(=O)c1ccccc1)c1ccccc1
EC50: > 200 µM
IC50: 182 µM

Fc1ccc(C2SCc3nc4ccccc4n32)c(F)c1 (stereo not given)
outcome: inactive

CCOC(=O)C(NC(=O)c1ccccc1)[CH](C)[Sn]([c]1ccccc1)([c]1ccccc1)[c]1ccccc1 (stereo not given)
EC50: > 200 µM
IC50: 13.5 µM

c1ccc2sc(N3CCCCC3)nc2c1
EC50: > 200 µM
IC50: 81.3 µM

Cn1c(=O)nc2n(-c3ccc(Cl)cc3Cl)c3ccccc3nc-2c1=O
outcome: inactive

CC(=O)c1c2c(cc3c1CC1(Cc4cc5c(cc4C1)CCC5)C3)CCC2
EC50: > 200 µM
IC50: > 200 µM

COc1cc2cc[n+](C)c(Cc3ccc(Oc4cc(Cc5c6cc(OC)c(OC)cc6cc[n+]5C)ccc4OC)cc3)c2cc1OC
outcome: inactive

CN1C2(c3ccccc3)c3c(-c4ccccc4)sc(-c4ccccc4)c3C1(c1ccccc1)C1C(=O)N(c3ccccc3)C(=O)C12 (stereo not given)
outcome: inactive

Nc1nc(N)c2nnsc2n1
EC50: > 200 µM
IC50: > 200 µM

CCCCCCCCCCCC(O)=C1C(=O)CCCC1=O
EC50: > 17.8 µM
IC50: > 17.8 µM

NC(CSS(=O)(=O)O)=NCCCC1CCCCC1
EC50: > 200 µM
IC50: 102 µM

COc1ccc(N2C(=O)C3c4[nH]c5c(C)cccc5c4C4CCC(C(C)(C)C)CC4C3C2=O)cc1 (stereo not given)
EC50: > 200 µM
IC50: 7.94 µM

NC(=O)C(O)C(O)C(N)=O (stereo not given)
EC50: > 457 µM
IC50: > 457 µM

COc1oc(C2C/C(=C/C(C)=C/C(C)=C/C(C)=C/c3ccc([N+](=O)[O-])cc3)CO2)c(C)c(=O)c1C (stereo not given)
EC50: > 38.9 µM
IC50: 10 µM

O=c1[nH]c2ncsc2c(=O)n1O
EC50: > 200 µM
IC50: 5.01 µM

COc1cccc(/C=C2/S/C(=N/Nc3nc(C)c(C(C)=O)s3)NC2=O)c1O
EC50: > 200 µM
IC50: 32.4 µM

NC(CSCCCS(=O)(=O)O)C(=O)O (stereo not given)
EC50: > 200 µM
IC50: > 200 µM

COC(=O)C1CCC(=O)NCCCCC(NC(=O)C(N)CC(=O)O)C(=O)N1 (stereo not drawn) (H-Asp-Lys-Glu-OMe; lactam 2-3; configuration not given here)
EC50: > 200 µM
IC50: 91.2 µM

CC(=O)N1CCc2cc(S(C)(=O)=O)c3c(c21)CCC3
outcome: inactive

CC(=O)OCC(=O)[C@@]1(O)CC[C@H]2[C@@H]3C[C@H](C)C4=CC(=O)C=C[C@]4(C)[C@@]3(Br)[C@@H](O)C[C@@]21C
outcome: inactive

CC(C)(C)OC(=O)/C=C/C(=O)O/C=C/[N+](=O)[O-]
EC50: > 200 µM
IC50: > 200 µM

Cc1nnc2sc3c(Cl)c4nn5c(C)nnc5sc4c(Cl)c3nn12
EC50: > 200 µM
IC50: 2.95 µM

CC1(C)O[C@H]2OC3CCC(=O)CC3(O)[C@H]2O1 (stereo not given in full)
outcome: inactive

O=C(O)CCSCc1cc(C(=O)Nc2ccc(/C=C/c3ccc(NC(=O)c4cc(CSCCC(=O)O)c5cccnc5c4O)cc3S(=O)(=O)O)c(S(=O)(=O)O)c2)c(O)c2ncccc12
EC50: 1.51 µM
IC50: 33.9 µM

CCOP(=O)(OCC)/C(=C/NC(=S)c1cccnc1)C(=O)OC
EC50: > 200 µM
IC50: 34.7 µM

[O-]c1c2c(nn1-c1ccc(F)cc1)c1ccccc1c[n+]2Cc1ccccc1
outcome: inactive

O=C1C(=Cc2ccc(O)cc2)N=C(c2ccccc2)N1n1c(-c2ccccc2)nc2ccccc2c1=O
EC50: > 200 µM
IC50: 77.6 µM

O=C1CC(O)CC(=O)C1=C(O)CCCCCCCCCCc1ccccc1 (stereo not given)
EC50: > 19.5 µM
IC50: > 19.5 µM

O=C1c2c(O)cccc2Cc2cccc(O)c21
outcome: inactive

C/C(=C/C(=O)Nn1c(Cc2ccccc2)n[nH]c1=O)C(=O)O
EC50: > 200 µM
IC50: > 200 µM

CC1=CCC[C@H]2[C@](C)(CC3=CC(=O)C(SCC(C)C)=CC3=O)[C@@H](C)CC[C@]12C
EC50: > 200 µM
IC50: 2.14 µM

C=CCNC(=O)CN(CC(=O)OC)C1CCCCC1N(CC(=O)OC)CC(=O)OC (stereo not given)
EC50: > 200 µM
IC50: > 200 µM

CCOC(=O)/C(=C\c1ccc(Cl)cc1)[Se]c1ccccc1
EC50: > 97.7 µM
IC50: > 97.7 µM

CN(C)c1ccc(/[N+]([O-])=C/c2cc(=O)c(OS(C)(=O)=O)co2)cc1
EC50: > 200 µM
IC50: 3.09 µM

Nc1ccc(S(=O)Cc2ccc(C(=O)O)cc2[N+](=O)[O-])cc1 (stereo not given)
EC50: > 776 µM
IC50: > 776 µM

CC(=O)OCC12CCC(C)=CC1OC1C3(O)N=C(C)OC3C2(C)C12CO2 (stereo not given)
EC50: > 200 µM
IC50: 0.0661 µM

C=C1C(O)CC[C@]2(C)C1C1OC(C)(C)O[C@]13CC(=O)C(C)=C([C@H]1OC(C)(C)OC12)C3(C)C (stereo not given in full)
EC50: > 200 µM
IC50: > 200 µM

COc1ccc(OC)c(CCc2cc(OC)c(OC)cc2C)c1
EC50: > 58.9 µM
IC50: 2.82 µM

Cc1ccc(NC(=O)CC(=O)n2nc(C)c(N=Nc3cccc(C)c3)c2C)cc1
EC50: > 200 µM
IC50: > 200 µM

O=c1c(SCc2ccccc2)c(N2CCCCC2)cnn1-c1ccccc1
EC50: > 69.2 µM
IC50: > 69.2 µM

O=S(=O)([O-])c1ccc(N=Cc2ccccc2[O-])cc1.O=S(=O)([O-])c1ccc(N=Cc2ccccc2[O-])cc1.[Co+2]
EC50: > 407 µM
IC50: 23.4 µM

CC(C)Cc1cccc(C(C)C)c1NC(=O)CCC(=O)N/N=C1\C(=N/NC(=O)CCC(=O)Nc2c(C(C)C)cccc2C(C)C)C(c2ccc3c(c2)OCO3)Oc2ccccc21 (stereo not given)
EC50: > 112 µM
IC50: 81.3 µM

C[C@]12CCC3[C@@H](CC[C@@H]4c5nonc5CC[C@]34C)C1CCC(=O)N2 (stereo not given in full)
EC50: > 97.7 µM
IC50: > 97.7 µM

CCN(CC)P1(=S)OCC(C)O1 (stereo not given)
EC50: > 324 µM
IC50: 309 µM

C[N+](C)([O-])CCNc1c2ccccc2nc2cccc([N+](=O)[O-])c12
EC50: > 20 µM
IC50: 0.355 µM

N#Cc1c(-c2ccccc2)cc(-c2ccccc2)[nH]c1=O
EC50: > 36.3 µM
IC50: > 36.3 µM

O=C1c2ccccc2C(=O)N1C/C=N/NS(=O)(=O)c1ccc2ccccc2c1
EC50: > 240 µM
IC50: > 240 µM

N#Cc1c(NC(=O)CN2CCOCC2)c(C(=O)Nc2ccccc2)n2c1CCC2
EC50: > 200 µM
IC50: > 200 µM

CCCCCCCCCCCCCCCCN[Si](NCCCCCCCCCCCCCCCC)(NCCCCCCCCCCCCCCCC)NCCCCCCCCCCCCCCCC
EC50: > 240 µM
IC50: 138 µM

Oc1ccccc1-c1cnnc(-c2ccccc2O)c1
EC50: > 97.7 µM
IC50: 18.2 µM

N/C(Cc1ccc(Cl)cc1)=N/O
EC50: > 200 µM
IC50: > 200 µM

O=[N+]([O-])c1ccccc1Nc1ccccc1[N+](=O)[O-]
EC50: > 52.5 µM
IC50: > 52.5 µM

O=C1OC(c2ccccc2)=N/C1=C/C=C/c1ccco1
outcome: inactive

CC(C)C1CCC(=O)CC1CCCCC1CC(=O)CC1O[Si](C)(C)C(C)(C)C (stereo not given)
EC50: > 200 µM
IC50: 7.24 µM

NC(=O)N/N=C1/CCCC/C1=C\c1ccccc1
outcome: inactive
